Measured values reported in patent US9078868B2, “Therapeutic agent for accelerating recovery of animal under medical treatment” (UNIVERSITY OF MIYAZAKI, priority 2010, dated 2015).
No end group written: not given here. *: point of attachment. Octanoyl = CCCCCCCC(=O)*

System: hospitalized animals (canines and felines) after surgery
Test: Example 1: single dose of ghrelin in hospitalized animals after surgery, parameters before vs after administration
Type: in vivo
Details: for Body temperature: animals improved/animals evaluated / Biochemical tests: animals improved/animals evaluated / Body temperature: response rate / Activity (vigor): animals improved/animals evaluated / Hematology tests: animals improved/animals evaluated: single dose
Experimental: In these Examples, a canine-derived ghrelin (a peptide compound in which a side chain hydroxyl group of the serine residue at the 3rd position from the amino terminus is acylated with an n-octanoyl group in SEQ ID NO: 1) was used as ghrelin. The canine-derived ghrelin was chemically synthesized and then lyophilized, and a canine-derived ghrelin for administration containing 0.1, 0.3, 0.5, or 1 mg per vial of a canine-derived ghrelin was prepared.
To administer ghrelin to animals, the canine-derived ghrelin was dissolved to a concentration of 1 mg/2 mL in physiological saline and intravenously, subcutaneously, or intramuscularly injected after the dose was adjusted depending on the body weight.
Animals hospitalized in veterinary hospitals, particularly canines and felines, were used for treatment. These animals may or may not have undergone a surgery for treatment. The surgeries performed on the animals were pyometra surgery, surgical removal of a reproductive organ, surgical removal of mammary gland tumor, ovary cyst surgery, liver cell tumor surgery, disc hernia surgery, diaphragmatic hernia surgery, fracture surgery, gastrointestinal tract surgery, and urethroplasty.
Physical conditions in animals with various pathological conditions were examined by measuring parameters including activity (vigor), blood cell test values, biochemical test values, urinalysis, electrolyte tests, body weight, body temperature, the degree of anger or anxiety, respiratory rate, and the like to evaluate the effect of improving physical conditions in the animals. The effect was evaluated by comparing various evaluation parameters before and after administration.
The evaluation parameters used were activity (vigor), body temperature, hematology parameters (blood cell test values), serum biochemistry parameters (biochemical test values), the degree of anger or anxiety, and respiratory rate. […] The degree of anger or anxiety of an animal observed visually by an observer were also evaluated using the following criteria: 1. calm and accustomed to a health care professional, 2. able to be touched by but unaccustomed to a health care professional and restless, 3. wandering around or hiding in the kennel with anxiety, 4. able to be barely touched, and 5. too violent to be touched by a health care professional and tends to bite.
13.2 to 80 μg/kg of a canine-derived ghrelin (chemically synthesized) was administered by an intravenous injection, a subcutaneous injection, or an intramuscular injection (solution for an injection: physiological saline or the like) to 32 animals (canines and felines) after surgery which were hospitalized in veterinary hospitals. The 32 cases of the animals were as follows.
Pyometra surgery and surgical removal of reproductive organ, 18 animals; mammary gland tumor surgery, three animals (including one animal also having pyometra); disc hernia surgery, two animals; surgery for a fracture or a traffic accident injury, three animals; urethroplasty, three animals; gastrointestinal tract surgery, two animals; and pneumothorax surgery, one animal.
Improvement of physical conditions of these animals was evaluated in terms of activity (vigor), body temperature, hematology parameters (blood cell test values), and serum biochemistry parameters (biochemical test values).

[1] = gastrointestinal tract surgery, 2 animals
[2] = pyometra surgery and surgical removal of reproductive organ, 18 animals
[3] = surgical removal of mammary gland tumor, 3 animals
[4] = total, 32 animals after surgery

Substance: GSS (n-octanoyl) FLSPEHQKLQQRKESKKPPAKLQPR (GSS(Octanoyl)FLSPEHQKLQQRKESKKPPAKLQPR; listed as Canis familiaris) [ghrelin, chemically synthesized, lyophilized]
- Body temperature: animals improved/animals evaluated (disc hernia surgery, 2 animals): 1/1
- Serum creatinine (Cre) value after administration (example, animal after surgery, before administration 6.0 mg/dL): 1.1 mg/dL
- Blood urea nitrogen (BUN) value after administration (example, animal after surgery, before administration 44.2 mg/dL): 29.3 mg/dL
- Total cholesterol (T-CHO) value after administration (example, animal after surgery, before administration 405 mg/dL): 260 mg/dL
- Glutamic pyruvic transaminase (GPT) value after administration (example, animal after surgery, before administration 180 IU/L): 85 IU/L
- Alkaline phosphatase (ALP) value after administration (example, animal after surgery, before administration 345 IU/L): 286 IU/L
- Creatinine phosphokinase (CPK) value after administration (example, animal after surgery, before administration 1429 IU/L): 955 IU/L
- C-reactive protein (CRP) value after administration (example, animal after surgery, before administration upper limit of measurement): 7.3 mg/dL
- White blood cell count after administration (example, animal after surgery, high count decreased, before administration 44.1×10^3/μL): 17700 µL⁻¹
- Platelet count after administration (example, animal after surgery, low count increased, before administration 13.9×10^4/μL): 585000 µL⁻¹
- Red blood cell count after administration (example, animal after surgery, low count increased, before administration 214×10^4/μL): 3.04e+06 µL⁻¹
- Hemoglobin level after administration (example, animal after surgery, low level increased): 7.7 g/dL
- Biochemical tests: animals improved/animals evaluated [1]: 1/1
- Body temperature: animals improved/animals evaluated [1]: 1/1
- Body temperature: animals improved/animals evaluated (pneumothorax surgery, 1 animal): 0/1
- Body temperature: response rate (pneumothorax surgery, 1 animal): (0%)
- Activity (vigor): animals improved/animals evaluated [2]: 6/7
- Biochemical tests: animals improved/animals evaluated [2]: 3/3
- Body temperature: animals improved/animals evaluated [2]: 3/4
- Hematology tests: animals improved/animals evaluated [2]: 3/4
- Activity (vigor): animals improved/animals evaluated (surgery for fracture or traffic accident injury, 3 animals): 3/3
- Activity (vigor): animals improved/animals evaluated [3]: 2/2
- Biochemical tests: animals improved/animals evaluated [3]: 1/1
- Body temperature: animals improved/animals evaluated [3]: 1/1
- Hematology tests: animals improved/animals evaluated [3]: 1/1
- Activity (vigor): animals improved/animals evaluated [4]: 11/12
- Biochemical tests: animals improved/animals evaluated [4]: 5/6
- Body temperature: animals improved/animals evaluated [4]: 5/8
- Hematology tests: animals improved/animals evaluated [4]: 4/6
- Activity (vigor): animals improved/animals evaluated (urethroplasty, 3 animals): 1/1
- Biochemical tests: animals improved/animals evaluated (urethroplasty, 3 animals): 1/2
- Body temperature: animals improved/animals evaluated (urethroplasty, 3 animals): 0/1
- Body temperature: response rate (urethroplasty, 3 animals): (0%)
- Hematology tests: animals improved/animals evaluated (urethroplasty, 3 animals): 1/2
